Reference: paper PMC8066331, “Anticancer Activity of Triazolo-Thiadiazole Derivatives and Inhibition of AKT1 and AKT2 Activation” (Pharmaceutics, 2021)

Legend:
DLD-1 = assay: MTT in vitro antiproliferative assay, DLD-1; format: cell-based, human; details: DLD-1, MTT
From the text: (§1) The in vitro antiproliferative activities of the novel triazolo[3,4-b]thiadiazole derivatives were estimated in ten well-established human cancer cell lines including three ovarian (SKOV-3, UWB 1.289, and UWB 1.289+BRCA1), five colorectal adenocarcinoma (DLD-1, HT-29, LS174T, LoVo, and SW403), and two prostate cancer cell lines (PC-3 and DU-145). All cancer cell lines were obtained from the American Type Culture Collection (ATCC) and cultivated in different culture media according to the instructions. The required growth mediums were supplemented with 10% fetal bovine serum and 1% streptomycin/penicillin. All cancer cell lines were cultured as monolayers and maintained at 37 °C, 5% CO2 in humidified air.
(§2) Stock solutions of all tested compounds were prepared by dissolving the required amount of substances in the DMSO solvent to reach the desired concentration of 15 mM.
(§3) To evaluate the in vitro antiproliferative activity of the triazolo[3,4-b]thiadiazole derivatives, 3-(4,5-dimethylthiazol-2-yl)-2,5-diphenyltetrazolium bromide (MTT) assay was assessed. According to the protocol, cells were firstly seeded into a 96-well plate at a density of 8 × 10^3 cells and grown for 24 h at 37 °C, 5% CO2 in humidified air. Subsequently, cells were treated with the tested compounds in a specific range of drug concentrations (1–100 μΜ). Following 48 h of drug exposure, the culture media were discarded and replaced with 100 μL of fresh medium. Afterwards, 50 μL of dissolved MTT in phosphate-buffered saline (PBS) solution (5 mg/mL) were added in each well and cells were incubated for 3 h at 37 °C, 5% CO2 in humidified air. Incubation time was followed by MTT discard and the addition of 100 μL of DMSO solvent so that the formazan crystals could be dissolved. The absorbance of the converted dye was immediately measured at a wavelength of 540 nm on an ELISA reader (VersaMax Microplate Reader, Orleans, CA, USA).
(§4) The in vitro anticancer effect of a tested compound on cell viability was determined by three dose–response parameters termed GI50, TGI, and IC50. More specifically, the GI50 value indicates the required concentration of the compound that impels 50% cell growth inhibition, the TGI value corresponds to the concentration that induces 100% cell growth inhibition, and the IC50 value is the concentration that causes 50% cell death. The two parameters GI50 and TGI represent the cytostatic activity, whereas IC50 reflects the cytotoxic effect of a drug. To estimate the three parameters, nine absorbance measurements were required including control 24 h (Ct24), control 72 h (Ct72), and the mean of cell survival in all seven drug concentrations (Tt72). The percentage growth inhibition was calculated according to National Cancer Institute’s (NCI) protocol: [(Tt72x) − (Ct24)/(Ct72) − (Ct24)] × 100 for concentrations for which Tt72x > Ct24 and [(Tt72x) − (Ct24)/Ct24] × 100 for concentrations for which Tt72x < Ct24. GI50 was calculated from [(Tt72x) − (Ct24)/(Ct72) − (Ct24)] × 100 = 50, TGI was calculated from [(Tt72x) − (Ct24)/(Ct72) − (Ct24)] × 100 = 0, and IC50 was calculated from [(Tt72x) − (Ct24)/Ct24] × 100 = 50. All the experiments were carried out in triplicate.

DU-145 = assay: MTT in vitro antiproliferative assay, DU-145; format: cell-based, human
From the text: as §1, §2, §3, §4

SKOV-3 = assay: MTT in vitro antiproliferative assay, SKOV-3; format: cell-based; details: Homo sapiens, SK-OV-3, 48 h
From the text: as §1, §2, §3, §4

HT-29 = assay: MTT in vitro antiproliferative assay, HT-29; format: cell-based, human
From the text: as §1, §2, §3, §4

PC-3 = assay: MTT in vitro antiproliferative assay, PC-3; format: cell-based; details: Homo sapiens, PC-3, 48 h
From the text: as §1, §2, §3, §4

Which results are given for `COc1cc(Cc2nnc3sc(-c4cc([N+](=O)[O-])ccc4[N+](=O)[O-])nn23)c(S(=O)(=O)N(C(C)C)C(C)C)cc1OC` [Compound 7d, 2-((6-(2,5-dinitrophenyl)-[1,2,4]triazolo[3,4-b][1,3,4]thiadiazol-3-yl)methyl)-N,N-diisopropyl-4,5-dimethoxybenzenesulfonamide]?
TGI (DLD-1; 48 h drug exposure): 12 ± 0.5 μΜ; IC50 (DLD-1; Homo sapiens, 48 h, 50% cell death): 22 ± 1 µM; GI50 (DLD-1; Homo sapiens, 48 h drug exposure): 7.3 ± 0.75 µM; TGI (DU-145; DU-145, MTT, 48 h drug exposure): 14 ± 0.5 μΜ; GI50 (DU-145; Homo sapiens, DU-145, 48 h): 6.8 ± 0.8 µM; IC50 (DU-145; Homo sapiens, DU-145, 48 h): 21.3 ± 0.9 µM; GI50 (SKOV-3): 13 ± 0.5 µM; IC50 (SKOV-3): 23 ± 1.4 µM; IC (TGI) (SKOV-3; read-out: TGI): 17 ± 1 µM; TGI (HT-29; HT-29, MTT, 48 h drug exposure): 26 ± 1.52 μΜ; GI50 (HT-29; Homo sapiens, HT-29, 48 h): 17.9 ± 2.51 µM; IC50 (HT-29; Homo sapiens, HT-29, 48 h): 40 ± 1 µM; GI50 (PC-3): 8 ± 1 µM; IC50 (PC-3): 22 ± 0.3 µM; IC (TGI) (PC-3; read-out: TGI): 11 ± 1.04 µM
